Reference: patent publication US7476741B2, “Substituted 4H-chromens, 2H-chromenes, chromans and analogs as activators of caspases and inducers of apoptosis and the use thereof” (Cytovia, Inc., priority 2002, dated 2009)

Tests used:
ZR-75-1 = experiment: Caspase cascade activation assay (N-(Ac-DEVD)-N'-ethoxycarbonyl-R110 fluorogenic substrate) in ZR-75-1 cells; assay type: cell-based; details: ZR-75-1 human breast cancer cells, 24 h incubation; for EC50: sigmoidal dose-response, read-out: ZR-75-1 EC50 (nM) (potency)
Method: (§1) Human breast cancer cell lines T-47D and ZR-75-1 were grown according to media component mixtures designated by American Type Culture Collection +10% FCS (Invitrogen Corporation), in a 5% CO2−95% humidity incubator at 37° C. T-47D and ZR-75-1 cells were maintained at a cell density between 30 and 80% confluency at a cell density of 0.1 to 0.6×10^6 cells/mL. Cells were harvested at 600×g and resuspended at 0.65×10^6 cells/mL into appropriate media +10% FCS. An aliquot of 45 μL of cells was added to a well of a 96-well microtiter plate containing 5 μL of a 10% DMSO in RPMI-1640 media solution containing 0.16 to 10 μM of 4-(3-bromo-4,5-dimethoxyphenyl)-3-cyano-4H-indolo[4,5-b]pyran (Example 1) or other test compound (0.016 to 1 μM final). An aliquot of 45 μL of cells was added to a well of a 96-well microtiter plate containing 5 μL of a 10% DMSO in RPMI-1640 media solution without test compound as the control sample. The samples were mixed by agitation and then incubated at 37° C. for 24 h in a 5% CO2-95% humidity incubator. After incubation, the samples were removed from the incubator and 50 μL of a solution containing 20 μM of N-(Ac-DEVD)-N′-ethoxycarbonyl-R110 (SEQ ID No.:1) fluorogenic substrate (Cytovia, Inc.; U.S. Pat. No. 6,335,429), 20% sucrose (Sigma), 20 mM DTT (Sigma), 200 mM NaCl (Sigma), 40 mM Na PIPES buffer pH 7.2 (Sigma), and 500 μg/mL lysolecithin (Calbiochem) was added. The samples were mixed by agitation and incubated at room temperature. Using a fluorescent plate reader (Model 1420 Wallac Instruments), an initial reading (T=0) was made approximately 1-2 min after addition of the substrate solution, employing excitation at 485 nm and emission at 530 nm, to determine the background fluorescence of the control sample. After the 3 h incubation, the samples were read for fluorescence as above (T=3 h).
(§2) The Relative Fluorescence Unit values (RFU) were used to calculate the sample readings as follows: RFU(T=3h)−Control RFU(T=0)=Net RFU(T=3h)
(§3) The activity of caspase cascade activation was determined by the ratio of the net RFU value for 4-(3-bromo-4,5-dimethoxyphenyl)-3-cyano-4H-indolo[4,5-b]pyran or other test compound to that of control samples. The EC50 (nM) was determined by a sigmoidal dose-response calculation (Prism 2.0, GraphPad Software Inc.).

T-47D = experiment: Caspase cascade activation assay (N-(Ac-DEVD)-N'-ethoxycarbonyl-R110 fluorogenic substrate) in T-47D cells; assay type: cell-based; details: T-47D human breast cancer cells, 24 h incubation; ratio of net RFU of compound to control
Method: as §1, §2, §3

OC1CC(c2cc(Cl)cc(Cl)c2)c2ccc3[nH]ccc3c2O1 (centres unmarked)
EC50 (ZR-75-1): > 1000 nM

COc1cc(C2=C(Cl)COc3cc(N(C)C)ccc32)cc(OC)c1OC [Example 10, 3-Chloro-7-dimethylamino-4-(3,4,5-trimethoxyphenyl)-2H-chromene]
T-47D Ratio (caspase activity) (T-47D): 8.2
EC50 (ZR-75-1): 280 nM

COc1cc(C2CC(=O)Oc3c2ccc2c3ccn2C)cc(Br)c1OC (centres unmarked) [Example 21, 4-(3-Bromo-4,5-dimethoxyphenyl)-7-methyl-pyrrolo[2,3-h]chroman-2-one]
T-47D Ratio (caspase activity) (T-47D): 6.2
EC50 (ZR-75-1): 127 nM

COc1cc(C2c3ccc4[nH]ccc4c3OC(=O)C2C#N)cc(Br)c1OC (centres unmarked) [Example 14, 4-(3-Bromo-4,5-dimethoxyphenyl)-3-cyano-2-oxo-pyrrolo[2,3-h]chroman]
T-47D Ratio (caspase activity) (T-47D): 4.8
EC50 (ZR-75-1): 278 nM

CCn1ccc2c3c(ccc21)C(c1cc(Br)c(OC)c(OC)c1)C(C#N)=CO3 (centres unmarked) [Example 5, 4-(3-Bromo-4,5-dimethoxyphenyl)-3-cyano-7-ethyl-4H-indolo[4,5-b]pyran]
T-47D Ratio (caspase activity) (T-47D): 3.6
EC50 (ZR-75-1): 18 nM

COc1cc(C2CC(O)Oc3c2ccc2cc[nH]c32)cc(Br)c1OC (centres unmarked) [Example 30, 4-(3-Bromo-4,5-dimethoxyphenyl)-2-hydroxy-pyrrolo[3,2-h]chroman]
T-47D Ratio (caspase activity) (T-47D): 6.8
EC50 (ZR-75-1): 379 nM

COc1cc(C2CC(OC)Oc3cc(N)ccc32)cc(Br)c1OC (centres unmarked)
EC50 (ZR-75-1): > 1000 nM

COc1cc(C2CC(O)Oc3c2ccc2[nH]c(=O)[nH]c32)cc(Br)c1OC (centres unmarked) [Example 29, 4-(3-Bromo-4,5-dimethoxyphenyl)-7,9-dihydro-2-hydroxy-8-oxo-imidazolo[4,5-h]chroman]
T-47D Ratio (caspase activity) (T-47D): 6.0
EC50 (ZR-75-1): 360 nM

Cn1ccc2c3c(ccc21)C(c1cncc(Br)c1)C(C#N)=CO3 (centres unmarked) [Example 3, 4-(5-Bromo-pyridin-3-yl)-3-cyano-7-methyl-4H-indolo[4,5-b]pyran]
T-47D Ratio (caspase activity) (T-47D): 5.1
EC50 (ZR-75-1): 3 nM

COc1cc(C2CC(O)Oc3cc(NC(C)=O)ccc32)cc(Br)c1OC (centres unmarked) [Example 27, N-[4-(3-Bromo-4,5-dimethoxyphenyl)-2-hydroxy-chroman-7-yl]-acetamide]
T-47D Ratio (caspase activity) (T-47D): 1.3
EC50 (ZR-75-1): 548 nM

COc1ccc2c(c1)OC(=O)CC2c1cc(OC)c(OC)c(OC)c1 (centres unmarked) [Example 31, 7-Methoxy-4-(3,4,5-trimethoxyphenyl)-chroman-2-one]
T-47D Ratio (caspase activity) (T-47D): 1.3
EC50 (ZR-75-1): 573 nM

COc1cc(C2CC(OC(C)=O)Oc3c2ccc2c3ccn2C)cc(Br)c1OC (centres unmarked) [Example 20, 2-Acetoxy-4-(3-bromo-4,5-dimethoxyphenyl)-7-methyl-pyrrolo[2,3-h]chroman]
T-47D Ratio (caspase activity) (T-47D): 4.7
EC50 (ZR-75-1): 3 nM

COc1cc(C2CC(O)Oc3c2ccc2cnccc32)cc(Br)c1OC (centres unmarked) [Example 26, 4-(3-Bromo-4,5-dimethoxyphenyl)-2-hydroxy-pyrido[3,4-h]chroman]
T-47D Ratio (caspase activity) (T-47D): 1.1
EC50 (ZR-75-1): > 1000 nM

COc1ccc(C2CC(=O)Oc3c2cc(OC)c(OC)c3OC)cc1O (centres unmarked) [Example 32, 4-(3-Hydroxy-4-methoxyphenyl)-6,7,8-trimethoxy-chroman-2-one]
T-47D Ratio (caspase activity) (T-47D): 4.4
EC50 (ZR-75-1): 3080 nM

N#CC1=COc2ccccc2C1c1ccccc1 (centres unmarked) [Example 6, 3-Cyano-4-phenyl-4H-chromene]
T-47D Ratio (caspase activity) (T-47D): In-active
ZR-75-1 Ratio (caspase activity) (ZR-75-1; ratio of net RFU of compound to control): In-active
EC50 (ZR-75-1): 2940 nM

COc1cc(C2CC(O)Oc3cc(N(C)C)ccc32)cc(Br)c1OC (centres unmarked) [Example 15, 4-(3-Bromo-4,5-dimethoxyphenyl)-7-dimethylamino-2-hydroxy-chroman]
T-47D Ratio (caspase activity) (T-47D): 14.6
EC50 (ZR-75-1): 15 nM

COc1cc(C2CC(OC(C)=O)Oc3cc(N(C)C)ccc32)cc(Br)c1OC (centres unmarked) [Example 17, 2-Acetoxy-4-(3-bromo-4,5-dimethoxyphenyl)-7-dimethylamino-chroman]
T-47D Ratio (caspase activity) (T-47D): 5.2
EC50 (ZR-75-1): 29 nM

COc1ccc2c(c1)OCC(C#N)C2c1cc(OC)c(OC)c(OC)c1 (centres unmarked) [Example 11, 3-Cyano-7-methoxy-4-(3,4,5-trimethoxyphenyl)-chroman]
T-47D Ratio (caspase activity) (T-47D): 9.6
EC50 (ZR-75-1): 101 nM

COC1CC(c2cc(Cl)cc(Cl)c2)c2ccc(N)cc2O1 (centres unmarked)
T-47D Ratio (caspase activity) (T-47D): 1.2
EC50 (ZR-75-1): > 10000 nM

COc1cc(C2CCOc3cc(N(C)C)ccc32)cc(Br)c1OC (centres unmarked)
EC50 (ZR-75-1): > 10000 nM

COc1cc(C2CCOc3c2ccc2c3ccn2C)cc(Br)c1OC (centres unmarked) [Example 22, 4-(3-Bromo-4,5-dimethoxyphenyl)-7-methyl-pyrrolo[2,3-h]chroman]
T-47D Ratio (caspase activity) (T-47D): 6.5
EC50 (ZR-75-1): 48 nM

COc1cc(C2C(C#N)=COc3cc(N(C)C)ccc32)cc(Br)c1OC (centres unmarked) [Example 2, 4-(3-Bromo-4,5-dimethoxyphenyl)-3-cyano-7-dimethylamino-4H-chromene]
T-47D Ratio (caspase activity) (T-47D): 5.5
EC50 (ZR-75-1): 30 nM

COc1ccc(C2c3ccc(N(C)C)cc3OC(OCCCN)C2Br)cc1OC (centres unmarked)
EC50 (ZR-75-1): > 10000 nM

OC1CC(c2cc(Cl)cc(Cl)c2)c2ccc3cnccc3c2O1 (centres unmarked)
EC50 (ZR-75-1): > 1000 nM

COc1ccc2c(c1)OC(=O)C(C#N)C2c1cc(OC)c(OC)c(OC)c1 (centres unmarked) [Example 13, 3-Cyano-7-methoxy-2-oxo-4-(3,4,5-trimethoxyphenyl)-chroman]
T-47D Ratio (caspase activity) (T-47D): 4.3
EC50 (ZR-75-1): 67 nM

COc1ccc(C2CC(=O)Oc3cc(OC)c(OC)c(OC)c32)cc1 (centres unmarked)
EC50 (ZR-75-1): > 10000 nM

CC(=O)Nc1ccc2c(c1)OC(O)CC2c1cc(Cl)cc(Cl)c1 (centres unmarked)
EC50 (ZR-75-1): > 10000 nM

COc1cc(C2CC(O)Oc3c2ccc2cccnc32)cc(Br)c1OC (centres unmarked) [Example 28, 4-(3-Bromo-4,5-dimethoxyphenyl)-2-hydroxy-pyrido[3,2-h]chroman]
T-47D Ratio (caspase activity) (T-47D): 6.5
EC50 (ZR-75-1): 344 nM

COc1cc(C2CC(OC)Oc3c2ccc2c3ccn2C)cc(Br)c1OC (centres unmarked) [Example 19, 4-(3-Bromo-4,5-dimethoxyphenyl)-2-methoxy-7-methyl-pyrrolo[2,3-h]chroman]
T-47D Ratio (caspase activity) (T-47D): 4.5
EC50 (ZR-75-1): 48 nM

COc1cccc(C2=C(Br)C(C)(C)Oc3cc(OC)ccc32)c1
EC50 (ZR-75-1): > 10000 nM

COc1cc(C2C(C#N)=COc3c2ccc2[nH]ccc32)cc(Br)c1OC (centres unmarked) [Example 1, 4-(3-Bromo-4,5-dimethoxyphenyl)-3-cyano-4H-indolo[4,5-b]pyran]
T-47D Ratio (caspase activity) (T-47D): 7.3
EC50 (ZR-75-1): 32 nM

COc1cccc(C2=CC(C)(C)Oc3cc(OC)ccc32)c1
EC50 (ZR-75-1): > 10000 nM

COc1ccc2c(c1)OC=C(C#N)C2c1cc(OC)c(OC)c(OC)c1 (centres unmarked) [Example 8, 3-Cyano-7-methoxy-4-(3,4,5-trimethoxyphenyl)-4H-chromene]
T-47D Ratio (caspase activity) (T-47D): 6.7
EC50 (ZR-75-1): 210 nM

COc1ccc(C2CC(=O)Oc3cc(OC)c(OC)c(OC)c32)cc1OC (centres unmarked)
EC50 (ZR-75-1): > 1000 nM

COc1ccc2c(c1)OC(O)CC2c1cc(OC)c(OC)c(OC)c1 (centres unmarked) [Example 23, 7-Methoxy-2-hydroxy-4-(3,4,5-trimethoxyphenyl)-chroman]
T-47D Ratio (caspase activity) (T-47D): 6.0
EC50 (ZR-75-1): 23 nM

COc1cc(C2CC(O)Oc3c2ccc2c3ccn2C)cc(OC)c1OC (centres unmarked) [Example 25, 2-Hydroxy-7-methyl-4-(3,4,5-trimethoxyphenyl)-pyrrolo[2,3-h]chroman]
T-47D Ratio (caspase activity) (T-47D): 10.1
EC50 (ZR-75-1): 4 nM

COc1cc(C2C(C#N)=COc3c2ccc2c3oc(=O)n2C)cc(Br)c1OC (centres unmarked) [Example 7]
T-47D Ratio (caspase activity) (T-47D): 6.7
EC50 (ZR-75-1): 14 nM

COc1cc(C2CC(O)Oc3c2ccc2c3ccn2C)cc(Br)c1OC (centres unmarked) [Example 18, 4-(3-Bromo-4,5-dimethoxyphenyl)-2-hydroxy-7-methyl-pyrrolo[2,3-h]chroman]
T-47D Ratio (caspase activity) (T-47D): 6.0
EC50 (ZR-75-1): 7.8 nM

COc1ccc(C2CC(=O)Oc3c2cc(OC)c(OC)c3OC)cc1 (centres unmarked)
T-47D Ratio (caspase activity) (T-47D): 5.7
EC50 (ZR-75-1): 2650 nM

COc1ccc2c(c1)OC(OCCN)CC2c1cc(OC)c(OC)c(OC)c1 (centres unmarked)
EC50 (ZR-75-1): > 1000 nM

COc1cc(C2C(C#N)=COc3c2ccc2c3ccn2C)cc(Br)c1OC (centres unmarked) [Example 4, 4-(3-Bromo-4,5-dimethoxyphenyl)-3-cyano-7-methyl-4H-indolo[4,5-b]pyran]
T-47D Ratio (caspase activity) (T-47D): 5.9
EC50 (ZR-75-1): 2.2 nM

COc1cc(C2CC(OC)Oc3cc(N(C)C)ccc32)cc(Br)c1OC (centres unmarked) [Example 16, 4-(3-Bromo-4,5-dimethoxyphenyl)-7-dimethylamino-2-methoxy-chroman]
T-47D Ratio (caspase activity) (T-47D): 6.8
EC50 (ZR-75-1): 275 nM
